The supplement of paper PMC7840683
Counter-ions that a name gives are not always drawn.

Test system: HepaRG
Assay: LDH release cytotoxicity, % of total lysis control; higher = more cytotoxic
Settings: 48 h
Procedure, shortened: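 HepaRG cells from a single lot were plated on collagen I-coated 96-well plates and treated in duplicate for 48 h with eight-point half-log series of test chemicals, starting at 100 µM, in serum-free induction medium containing 0.5% DMSO. Total lysis wells were given 0.1% Triton X. LDH released into 50 µL of spent medium was measured as resorufin fluorescence with CytoTox-ONE on a Tecan Safire. Percent cytotoxicity was normalized to on-plate vehicle and total lysis controls and then averaged across duplicates.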

CC(Cl)(Cl)C(=O)O [Dalapon]
Settings	LDH release cytotoxicity [%]
0.03162 µM	-1.01
0.1 µM	-0.953
0.3162278 µM	-0.84
1 µM	-0.409
3.16228 µM	-0.505
10 µM	0.644
31.6228 µM	1.01
100 µM	0.962

CN(C)NC(=O)CCC(=O)O [Daminozide]
Settings	LDH release cytotoxicity [%]
0.03162 µM	-1.88
0.1 µM	-1.67
0.3162278 µM	-1.27
1 µM	-0.212
3.16228 µM	-1.11
10 µM	-0.0868
31.6228 µM	0.553
100 µM	1.58

Nc1ccc(S(=O)(=O)c2ccc(N)cc2)cc1 [Dapsone]
Settings	LDH release cytotoxicity [%]
0.03162 µM	-1.24
0.1 µM	-0.379
0.3162278 µM	-1.16
1 µM	-0.536
3.16228 µM	0.1
10 µM	-0.392
31.6228 µM	0.105
100 µM	1.63

CC(C)(C)c1cc(C=C2SC(=N)NC2=O)cc(C(C)(C)C)c1O [Darbufelone mesylate]
Settings	LDH release cytotoxicity [%]
0.03162 µM	-2.49
0.1 µM	-3.41
0.3162278 µM	-3.09
1 µM	-3.16
3.16228 µM	-3.23
10 µM	-3.27
31.6228 µM	-2.49
100 µM	-1.56

CN1CSC(=S)N(C)C1 [Dazomet]
Settings	LDH release cytotoxicity [%]
0.03162 µM	-1.04
0.1 µM	-0.753
0.3162278 µM	-1.34
1 µM	-1.86
3.16228 µM	-2.37
10 µM	-3.44
31.6228 µM	13.1
100 µM	78

CCCCCCCCCC [Decane]
Settings	LDH release cytotoxicity [%]
0.031623 µM	-0.647
0.1 µM	-2.33
0.316228 µM	-2.41
1 µM	-2.73
3.16228 µM	-3.64
10 µM	-2.67
31.6228 µM	-1.91
100 µM	0.361

CCCCCCCCCC(=O)O [Decanoic acid]
Settings	LDH release cytotoxicity [%]
0.03162 µM	-1.36
0.1 µM	-2.46
0.3162278 µM	-1.69
1 µM	-1.7
3.16228 µM	-1.42
10 µM	-1.16
31.6228 µM	-0.917
100 µM	-0.408

CCNc1nc(N)nc(Cl)n1 [Deisopropylatrazine]
Settings	LDH release cytotoxicity [%]
0.03162 µM	-0.429
0.1 µM	-1.18
0.3162278 µM	-0.471
1 µM	-1.46
3.16228 µM	-0.314
10 µM	-0.765
31.6228 µM	-0.375
100 µM	0.373

CC1CC2C3CCC4=CC(=O)C=CC4(C)C3(F)C(O)CC2(C)C1(O)C(=O)COP(=O)(O)O (stereo not given) [Dexamethasone sodium phosphate]
Settings	LDH release cytotoxicity [%]
0.03162 µM	-1.41
0.1 µM	-1.19
0.3162278 µM	-0.881
1 µM	-1.653
3.16228 µM	-1.03
10 µM	-1.06
31.6228 µM	-0.535
100 µM	-0.295

CCCCC(CC)COC(=O)c1ccccc1C(=O)OCC(CC)CCCC (stereo not given) [Di(2-ethylhexyl) phthalate]
Settings	LDH release cytotoxicity [%]
0.01581 µM	-1.27
0.05 µM	-1.74
0.1581139 µM	-1.47
0.5 µM	-0.91
1.5811388 µM	-1.48
5 µM	-1.76
15.8114 µM	-0.407
50 µM	-0.778

CC(COCC(C)OC(=O)c1ccccc1)OC(=O)c1ccccc1 (stereo not given) [Di(propylene glycol) dibenzoate]
Settings	LDH release cytotoxicity [%]
0.03162 µM	-0.851
0.1 µM	-1.49
0.3162278 µM	-1.08
1 µM	-1.01
3.16228 µM	-1.58
10 µM	-1.58
31.6228 µM	-1.03
100 µM	0.42

CCCCCCCCOC(=O)c1ccccc1C(=O)OCCCCCCCC [Di-n-octyl phthalate]
Settings	LDH release cytotoxicity [%]
0.03162 µM	-0.293
0.1 µM	-1.33
0.3162278 µM	-0.746
1 µM	-0.29
3.16228 µM	-1.1
10 µM	-0.705
31.6228 µM	-0.176
100 µM	5.1

CC(C)(C)OOC(C)(C)C [Di-tert-butyl peroxide]
Settings	LDH release cytotoxicity [%]
0.01581 µM	-1.21
0.05 µM	-2.14
0.1581139 µM	-1.99
0.5 µM	-2.18
1.5811388 µM	-1.46
5 µM	-1.68
15.8114 µM	-1.75
50 µM	-1.55

CC(=O)CC(C)(C)O [Diacetone alcohol]
Settings	LDH release cytotoxicity [%]
0.016602 µM	-0.631
0.0525 µM	0.0827
0.16602 µM	-0.266
0.525 µM	0.0034
1.660196 µM	-0.934
5.25 µM	-1.02
16.602 µM	-0.505
52.5 µM	-2.05

C=CCOC(=O)c1ccccc1C(=O)OCC=C [Diallyl phthalate]
Settings	LDH release cytotoxicity [%]
0.03162 µM	0.139
0.1 µM	0.0319
0.3162278 µM	-0.423
1 µM	-0.76
3.16228 µM	-0.551
10 µM	0.184
31.6228 µM	-0.538
100 µM	0.377

CCOP(=S)(OCC)Oc1cc(C)nc(C(C)C)n1 [Diazinon]
Settings	LDH release cytotoxicity [%]
0.03162 µM	-0.351
0.1 µM	-0.469
0.3162278 µM	-1.1
1 µM	-1.24
3.16228 µM	0.347
10 µM	-0.4
31.6228 µM	-0.512
100 µM	0.528

CCOP(=O)(OCC)Oc1cc(C)nc(C(C)C)n1 [Diazoxon]
Settings	LDH release cytotoxicity [%]
0.03162 µM	-0.61
0.1 µM	-1.35
0.3162278 µM	-0.708
1 µM	-1.37
3.16228 µM	-1.41
10 µM	-0.802
31.6228 µM	-0.357
100 µM	1.03

c1ccc2c(c1)oc1ccccc12 [Dibenzofuran]
Settings	LDH release cytotoxicity [%]
0.03162 µM	-0.992
0.1 µM	-1.07
0.3162278 µM	-1.34
1 µM	-1.2
3.16228 µM	-1.19
10 µM	-0.829
31.6228 µM	-0.8185
100 µM	1.45

N#CC(Br)Br [Dibromoacetonitrile]
Settings	LDH release cytotoxicity [%]
0.03162 µM	-2.24
0.1 µM	-3.22
0.3162278 µM	-2.74
1 µM	-2.98
3.16228 µM	-2.65
10 µM	-2.89
31.6228 µM	-2.1
100 µM	-0.937

CCCCOC(=O)CCCCC(=O)OCCCC [Dibutyl adipate]
Settings	LDH release cytotoxicity [%]
0.0317809 µM	-0.761
0.1005 µM	-1.45
0.317809 µM	-1.74
1.005 µM	-1.12
3.17809 µM	-1.24
10.05 µM	-0.568
31.7809 µM	0.579
100.5 µM	2.35
